Laboratory results: ChEMBL document CHEMBL1155570, “5'-Methoxyhydnocarpin-D and pheophorbide A: Berberis species components that potentiate berberine growth inhibition of resistant Staphylococcus aureus” (J Nat Prod, 2000)
Active and inactive are the calls of the source. No cut-off for these calls is given here.

The molecules below were run on Staphylococcus aureus (assay: Antimicrobial activity against Staphylococcus aureus 4222 with norA KLE 820(3) mutation).
Format: functional, organism-based

**Q.** COc1ccc2c(c1OC)CN(C)CCc1cc3c(cc1C(=O)C2)OCO3 was tested. Which Activity did it give?
**A.** inactive

**Q.** COc1ccc(CC2c3cc(OC)c(OC)cc3CCN2C)cc1OC (stereo not given) was tested. Which Activity did it give?
**A.** inactive

**Q.** CN1CCc2cc3c(cc2C(=O)Cc2cc4c(cc2C1)OCO4)OCO3 was tested. Which Activity did it give?
**A.** inactive

**Q.** For COc1cc2c(cc1O)[C@@H]1Cc3cc(O)c(OC)cc3C(C2)N1C, which Activity is on record?
**A.** inactive

**Q.** How did the Activity turn out when COc1cc2c(cc1OC)[C@@H]1Cc3ccc(OC)c(OC)c3CN1CC2 was run?
**A.** inactive

**Q.** How did the Activity turn out when COc1ccc2c(c1O)-c1c(OC)c(OC)cc3c1[C@H](C2)N(C)CC3 was run?
**A.** inactive

**Q.** Which Activity does the source give for COc1cc2c(cc1OC)-c1c(OC)c(OC)cc3c1[C@H](C2)N(C)CC3 here?
**A.** inactive

**Q.** For COc1cc2c(cc1OC)C1Cc3cc(OC)c(OC)cc3[C@H](C2)N1C, which Activity is on record?
**A.** inactive

**Q.** How did the Activity turn out when COc1ccc2c(c1OC)-c1c(OC)c(OC)cc3c1[C@H](C2)[N+](C)(C)CC3 was run?
**A.** inactive

The molecules below were run on Staphylococcus aureus (assay: Antimicrobial activity against Staphylococcus aureus 4222 with norA KLE mutation at 120 to 140 ug/ml).
Format: functional, organism-based

**Q.** How did the Activity turn out when COc1ccc2cc3[n+](cc2c1OC)CCc1cc2c(cc1-3)OCO2 was run?
**A.** Active
